Measurements: US7964406B2, “Means and methods for producing a stabilized cell of interest” (Academisch Medisch Centrum Bij De Universiteit Van Amsterdam, priority 2004, dated 2011)

Columns and labels:
human tonsillar B cells = assay: 4HT-dependent growth of CA-STAT5b-ER transduced tonsillar B cells; type: cell-based; conditions: 1 μM 4HT, CD40L, IL-2 and IL-4
Procedure: FIG. 19. Characteristics of B cells transduced with CA-STAT5b-ER. (A) Tonsil B cells were cultured in CD40L, IL-2 and IL-4 and transduced with CA-STAT5b-ER-IRES-ΔNGFR (circles) or with control-IRES-ΔNGFR (squares). Both cultures were split, one part was cultured without (open symbols) and another with 1 μM 4HT (closed symbols). At the indicated time points after transduction percentages of transduced cells were determined by flow cytometric analysis after staining with an APC-conjugated antibody against NGFR. Absolute cell number counts were determined based on the percentages of ΔNGFR^+ cells. The experiment shown is representative for 5 independent experiments performed. (B) CA-STAT5b-ER-IRES-ΔNGFR transduced B cells 30 days after transduction were cultured for 7 days in the absence of 4HT. Equal numbers of cells were cultured then either in the presence (closed squares) or absence of 4HT (open squares) and absolute cell numbers were determined. Shown is a representative experiment out of 3. (C) Flow cytometric analysis of a representative culture of CA-STAT5b-ER-IRES-ΔNGFR transduced B cells cultured in CD40L, IL-2 and IL-4 in the presence of 4HT. Isotype control stainings are shown as thin histograms.
We then transduced human tonsillar B cells with the CA-STAT5b-ER-IRES-ΔNGFR construct and examined the effect of 4HT on the proliferative capacity of these B cells. […]

BCL-6 = BCL-6 expression in STAT5b-ER+ tonsil B cells after 4HT, RT-PCR and Western blot; type: cell-based, human; conditions: 4HT added back for 8 hr after 10 days without
Procedure: FIG. 21. Induction of BCL-6 expression by STAT5. (A) RT-PCR analysis of BCL-6 and HPRT in B cells transduced with CA-STAT5b-ER cultured in CD40L, IL-2 and IL-4 with 4HT. After incubation of the cells without 4HT for 10 days, 4HT was added back for 8 hr in the presence or absence of cyclohexamide (CH). This experiment was repeated 3 times with similar results. (B) Expression of BCL-6 protein in CA-STAT5b-ER-transduced B cells cultured in the presence of 4HT constantly or absence of 4HT for 12 days as determined by Western blot analysis using an anti-BCL-6 antibody. An antibody against actin was used as a protein loading control. Similar results were obtained in 3 independent experiments. (C) Dual luciferase reporter assay. Part of the promoter region of the BCL-6 gene (position −657/+471 bp) was linked to the firefly (P. pyralis) luciferase coding sequence and subcloned into the pGL3 vector. One potential STAT5 binding site in this promoter region (−548/−566 bp) was mutated from […] to […], and two different clones (BCL-6* and BCL-6**) were subcloned into the pGL3-firefly luciferase backbone. These pGL3 constructs were cotransfected with LZRS-CA-STAT5b and the Renilla luciferase containing vector into 293T cells. Both luciferase activities were measured sequentially from a single sample and relative luciferase units were calculated and corrected for the Renilla luciferase activity. […]

Which results are given for 4-Hydroxy-Tamoxifen [4HT]?
growth selection of CA-STAT5b-ER expressing cells (ΔNGFR+) (human tonsillar B cells): only occurred in the presence of 4HT; expression of the BCL-6 transcript with 4HT versus without (BCL-6): substantially higher
